A word on the Kd: it is a measure of binding affinity in units of concentration.

This is an account of results in publication PMC12520410, “A FtsZ inhibitor-acinetobactin conjugate with enhanced cellular uptake in Acinetobacter baumannii acts synergistically in combination with PBP3-targeting antibiotics” (PLOS One, 2025).

What all share (assay type): binding
Experiment [1] has as its target T1, AbFtsZ (A. baumannii FtsZ) (Acinetobacter baumannii, UniProt V5V8B6). The experiment can be described thus: fluorescence anisotropy titration of RUP2 with purified AbFtsZ.
Another experiment deals with BauA (Acinetobacter baumannii, UniProt Q76HJ9). The experiment can be described thus: fluorescence anisotropy titration of the RUP7_2-Fe3+ complex with purified BauA. Background: Polarisation of emitted light reports the rotation of a fluorescent probe.
BauA, sequence (Q76HJ9 entry or part of it): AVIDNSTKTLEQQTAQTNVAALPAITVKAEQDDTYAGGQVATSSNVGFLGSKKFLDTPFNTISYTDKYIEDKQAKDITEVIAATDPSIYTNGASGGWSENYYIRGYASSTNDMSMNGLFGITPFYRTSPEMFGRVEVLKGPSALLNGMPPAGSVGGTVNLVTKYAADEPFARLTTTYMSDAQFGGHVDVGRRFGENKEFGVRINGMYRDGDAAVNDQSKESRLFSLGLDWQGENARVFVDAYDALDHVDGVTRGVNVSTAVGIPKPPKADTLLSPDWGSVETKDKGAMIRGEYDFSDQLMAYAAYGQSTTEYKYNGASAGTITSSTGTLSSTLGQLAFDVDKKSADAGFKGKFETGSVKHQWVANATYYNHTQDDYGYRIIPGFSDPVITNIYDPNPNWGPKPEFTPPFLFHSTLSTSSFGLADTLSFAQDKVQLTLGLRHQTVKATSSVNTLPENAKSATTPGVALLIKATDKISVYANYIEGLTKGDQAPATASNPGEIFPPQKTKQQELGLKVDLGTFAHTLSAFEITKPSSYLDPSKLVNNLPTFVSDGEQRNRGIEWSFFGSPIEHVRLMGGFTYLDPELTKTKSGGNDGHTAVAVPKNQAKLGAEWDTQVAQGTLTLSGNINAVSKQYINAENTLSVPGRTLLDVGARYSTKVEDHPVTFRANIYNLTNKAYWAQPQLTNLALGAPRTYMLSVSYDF
For experiment [2], the target named is T1, AbFtsZ (A. baumannii FtsZ). The experiment can be described thus: fluorescence anisotropy titration; also inhibits GTP-dependent polymerization (light scattering).

T1 sequence (V5V8B6 entry or part of it): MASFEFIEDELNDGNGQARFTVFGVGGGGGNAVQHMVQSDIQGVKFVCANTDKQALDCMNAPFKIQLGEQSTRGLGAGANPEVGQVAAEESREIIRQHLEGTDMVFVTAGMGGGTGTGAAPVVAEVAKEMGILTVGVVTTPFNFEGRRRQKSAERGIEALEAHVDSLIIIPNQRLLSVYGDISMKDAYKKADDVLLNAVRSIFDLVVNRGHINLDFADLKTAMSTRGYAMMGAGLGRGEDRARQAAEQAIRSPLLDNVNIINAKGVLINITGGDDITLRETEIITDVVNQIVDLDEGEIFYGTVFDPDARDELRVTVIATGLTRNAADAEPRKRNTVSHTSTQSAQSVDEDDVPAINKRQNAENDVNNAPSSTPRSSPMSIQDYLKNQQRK

`NC(=O)c1c(F)ccc(OC(CCO)c2nc(-c3ccc(C(F)(F)F)cc3)c(Br)o2)c1F` (stereo not drawn) [RUP2] returned a Kd in experiment [1] of 0.23 ± 0.09 µM.

As to `C[C@@H]1ON(CCc2cn(CCC(Oc3ccc(F)c(C(N)=O)c3F)c3nc(-c4ccc(C(F)(F)F)cc4)c(Br)o3)cn2)C(=O)[C@H]1NC(=O)c1cccc(O)c1O` (stereo partly drawn) [RUP7], the Kd at BauA amounted to 1.8 ± 0.4 µM; in experiment [2], 26.5 ± 3.7 µM.
